Data reported in patent US7547680B2, “Benzimidazole derivatives and medical uses thereof” (Kissei Pharmaceuticals, Co., Ltd., priority 2004, dated 2009).

Assays:
[1] = biological target: T1, human CNT2 (Homo sapiens, UniProt O43868, I160M/P22L/S45C); experiment: Inhibitory activity against uptake of adenosine through human CNT2; type: cell-based; details: COS-7 cells transiently expressing human CNT2; adenosine 10 μM; NBMPR 10 μM; incubation 30 minutes at 37° C.
T1 construct: expressed in transfected cells; host or cells: COS-7 cells (RIKEN CELL BANK RCB0539), transient lipofection of pCI-neo plasmid
T1 sequence (O43868 1-658 P22L/S45C/I160M): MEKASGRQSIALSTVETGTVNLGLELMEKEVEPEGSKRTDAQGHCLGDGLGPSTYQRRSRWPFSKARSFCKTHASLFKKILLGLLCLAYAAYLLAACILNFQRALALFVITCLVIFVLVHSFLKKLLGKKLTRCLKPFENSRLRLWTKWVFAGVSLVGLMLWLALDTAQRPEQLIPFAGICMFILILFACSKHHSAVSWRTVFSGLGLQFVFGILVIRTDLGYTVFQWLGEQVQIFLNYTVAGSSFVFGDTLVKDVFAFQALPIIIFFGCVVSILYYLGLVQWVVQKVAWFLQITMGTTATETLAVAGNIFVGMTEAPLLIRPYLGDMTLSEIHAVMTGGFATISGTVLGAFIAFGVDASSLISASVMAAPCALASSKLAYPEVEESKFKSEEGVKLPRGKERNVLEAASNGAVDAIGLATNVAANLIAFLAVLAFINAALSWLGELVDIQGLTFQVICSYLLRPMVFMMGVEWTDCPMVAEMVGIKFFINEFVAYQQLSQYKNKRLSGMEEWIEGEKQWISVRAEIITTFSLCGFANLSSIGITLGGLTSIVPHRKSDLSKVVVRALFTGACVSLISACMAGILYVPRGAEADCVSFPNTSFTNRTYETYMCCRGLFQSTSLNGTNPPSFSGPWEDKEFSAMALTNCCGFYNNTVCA
Procedure: Human CNT2 cDNA was obtained by PCR amplification of human kidney cDNA (CLONTECH). PCR reaction solution contained 1 μL cDNA, 2 units Platinum taq DNA polymerase high fidelity (Invitrogen), 1 μM primers (Forward: 5′-AGGAGCCAGAGGGAATCAAT-3′, Reverse: 5′-ACATCTTGGTGAGTGAGTTG-3′). Amplifications for 1 cycle at 94° C. for 2 minutes, 32 cycles at 94° C. for 30 seconds, 58° C. for 30 seconds and 68° C. for 3 minutes were performed and PCR products were ligated into PCR-II-TOPO vector (Invitrogen). PCR reaction was performed with primers containing restriction enzyme sites and the constructed plasmid as a template. PCR reaction solution contained 100 ng plasmid, 2 units Pyrobest DNA polymerase (Takara), 330 nM primers (Forward: 5′-CCGCTCGAGAGGAGCCAGAGGGAATCAAT-3′, Reverse: 5′-CGTCTAGAACATCTTGGTGAGTGAGTTG-3′). Amplifications for 1 cycle at 95° C. for 3 minutes, 15 cycles at 98° C. for 10 seconds, 60° C. for 30 seconds and 72° C. for 1 minute and 1 cycle at 72° C. for 7 minutes were performed, and the PCR products were ligated into PCI-neo mammalian expression vector (Promega). The amino acid sequence of cloned human CNT2 was substituted at P22L (codon, CCG to CTG), S45C (codon, AGC to TGC) and I160M (codon, ATA to ATG) compared to a reported amino acid sequence for human CNT2 (NCBI Accession No. AAC51930).
Expression plasmid of human CNT2 was transfected into COS-7 cells (RIKEN CELL BANK RCB0539) by lipofection method. LIPOFECTAMINE 2000 (Invitrogen) was used as a lipofection reagent. COS-7 cells were diluted in D-MEM (Invitrogen) containing 10% fetal calf serum (Sanko Junyaku) at 5×10^5/1 mL, and seeded into collagen-coated 96-well plates (IWAKI) at 100 μL/well and cultured at 37° C. for 2 hours with 5% CO2 condition. For each well, 0.6 μL of LIPOFECTAMINE 2000 (Invitrogen) was diluted in 25 μL of OPTI-MEM (Invitrogen), and incubated for 7 minutes at room temperature (hereinafter referred to as Lipo 2000-OPTI). For each well, 0.3 μg of plasmid was diluted in 25 μL of OPTI-MEM (Invitrogen), and the solution was added to the Lipo 2000-OPTI and mixed gently and incubated for 30 minutes at room temperature, and was transferred 50 μL for each well to culture medium. The cells were incubated at 37° C. with 5% CO2 condition for 2 days, and used for the uptake assays.
An Uptake buffer was prepared by addition of a mixture of non-radioisotope labeled (Sigma) and ^14C-labeled (Amersham Biosciences) adenosine at the final concentration of 10 μM into a buffer, pH 7.4, containing 140 mM sodium chloride, 2 mM potassium chloride, 1 mM calcium chloride, 1 mM magnesium chloride, 10 mM HEPES 2-[4-(2-hydroxyethyl)-1-piperazinyl]ethane sulfonic acid, 5 mM tris(hydroxymethyl)aminomethane and 5 mM glucose. For measurement of basal uptake, Basal uptake measurement buffer, which contained 140 mM choline chloride instead of sodium chloride was prepared. […]. After removing culture medium of human CNT2 transiently expressing cells, Pretreatment buffer (Basal uptake measurement buffer without adenosine and glucose) was added to wells at 200 μL/well and incubated at 37° C. for 10 minutes. After repeating the same step again, Pretreatment buffer was removed and Measurement buffers and Basal uptake measurement buffer were added at 75 μL/well and incubated at 37° C. After incubation for 30 minutes, Measurement buffers and Basal uptake measurement buffer were removed, and the cells were washed with Washing buffer (Basal uptake measurement buffer with non-radioisotope labeled adenosine at 10 μM) at 200 μL/well twice. The cells were solubilized with 0.2 mol/L sodium hydroxide at 75 μL/well, and the cell lysates were transferred into PicoPlates (Perkin Elmer). After mixing with 150 μL of MicroScint-40 (Perkin Elmer), radioactivity was measured by means of scintillation counter (Perkin Elmer). […]

[2] = Effects of CNT2 inhibitors on plasma uric acid level (purine tolerance test in rats); type: in vivo; details: Male SD-IGS rats; oxonic acid 100 mg/kg s.c.; purine mix 50 mg/kg and test compound 10 mg/kg orally; blood after 1 hour; control group = 100%; Example 28 by HPLC, Examples 89 and 90 by phosphotungstic acid method
Procedure: Male SD-IGS rats (5 weeks old) which were fasted overnight, were subcutaneously treated with oxonic acid (Aldrich; 100 mg/kg), and after 1 hour, purine mix (Adenosine:Inosine:Guanosine=1:1:1 (Adenosine (Sigma), Inosine (WAKO), Guanosine (ICN); 50 mg/kg) and test compounds (10 mg/kg) were orally administrated simultaneously. A control group was treated with oxonic acid and the purine mix, and a group administrated only oxonic acid represented endogenous plasma uric acid value. After 1 hour, blood was collected from the abdominal aorta under ether anesthesia, and the plasma was collected with Venoject II vacuum blood collecting tube (Terumo, VP-FH052). According to the method described in Journal of Chromatography B, Vol. 744 (2000), pp. 129-138, plasma uric acid level in a compound of Example 28 was measured by using HPLC method mentioned below. Plasma uric acid levels in compounds of Examples 89 and 90 were measured by phosphotungstic acid method. Uric acid-Test Wako (WAKO) was used as a measurement reagent. As there is no difference of uric acid values between the HPLC method and the phosphotungstic acid method, uric acid value can be measured by either of both methods (for example, see the above Management guideline, pp. 18-19). The difference between plasma uric acid value in each study group and endogenous plasma uric acid value was calculated on the basis of 100% in the control group.
Theophylline (10 μg) as an internal standard substance was added to 0.1 mL of plasma collected with the above method, and then the samples were deproteinized with 1 mL of methanol. After the samples were centrifuged, the methanol layers were evaporated to dryness under a stream of nitrogen. […] Plasma uric acid concentration was determined by HPLC method according to the condition described below. […]
• Column: Inertsil ODS-2 (4.6×250 mm) • Mobile phase • A solution: acetonitrile • B solution: 10 mM phosphate buffer (pH 3.0) • A linear gradient elution method: A solution 2% to A solution 22% (25 minutes) • Column temperature: 40° C. • Flow rate: 0.5 mL/minute • Detection absorbance: 284 nm

[3] = biological target: T2, ENT2 (Homo sapiens, UniProt Q14542); details: ENT2, high concentration of NBMPR; cited from earlier work
T2 sequence (Q14542 1-456): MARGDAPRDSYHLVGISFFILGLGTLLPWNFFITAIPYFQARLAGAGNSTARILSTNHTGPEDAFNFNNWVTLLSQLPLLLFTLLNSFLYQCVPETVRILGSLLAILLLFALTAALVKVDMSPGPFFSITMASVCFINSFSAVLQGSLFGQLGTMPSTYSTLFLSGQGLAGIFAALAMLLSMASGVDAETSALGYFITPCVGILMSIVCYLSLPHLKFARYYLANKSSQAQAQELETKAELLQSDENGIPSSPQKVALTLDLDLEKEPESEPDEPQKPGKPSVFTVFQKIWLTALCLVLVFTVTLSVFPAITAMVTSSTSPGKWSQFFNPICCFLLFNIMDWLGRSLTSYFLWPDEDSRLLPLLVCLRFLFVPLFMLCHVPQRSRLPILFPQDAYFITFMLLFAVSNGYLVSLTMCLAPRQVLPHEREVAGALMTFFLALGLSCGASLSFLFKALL

SMILES | IC50 [1] [nM] | Percentage of increment of plasma uric acid level (%) [2] | IC50 [3] [nM]
OCCCCOc1cc(CNc2nc3ccccc3n2[C@@H]2O[C@H](CO)[C@@H](O)[C@H]2O)ccc1-c1ccccc1 [Example 28, 2-[3-(4-Hydroxybutoxy)-4-phenylbenzylamino]-1-(β-D-ribofuranosyl)-1H-benzimidazole] | 46 | 15.2% (p < 0.01) | –
CCCOc1ccc(CNc2nc3ccccc3n2[C@@H]2O[C@H](CO)[C@@H](O)[C@H]2O)cc1OCCCCO [Example 36] | 150 | – | –
CCCCOc1ccc(CNc2nc3ccccc3n2[C@@H]2O[C@H](CO)[C@@H](O)[C@H]2O)cc1OCCCCO [Example 37] | 213 | – | –
CCOc1ccc(CNc2nc3ccccc3n2[C@@H]2O[C@H](CO)[C@@H](O)[C@H]2O)cc1OCCCCO [Example 34, 2-[4-Ethoxy-3-(4-hydroxybutoxy)benzylamino]-1-(β-D-ribofuranosyl)-1H-benzimidazole] | 104 | – | –
O=[N+]([O-])c1ccc(CSc2ncnc3c2ncn3C2OC(CO)C(O)C2O)cc1 (stereo not drawn) [NBMPR, nitrobenzylthioinosine] | – | – | > 1000

Second part, led by results:

IC50 [1] [nM] | SMILES | Percentage of increment of plasma uric acid level (%) [2] | IC50 [3] [nM]
55 | NC(=O)C1CCN(CCCOc2cccc(CNc3nc4ccccc4n3[C@@H]3O[C@H](CO)[C@@H](O)[C@H]3O)c2)CC1 [Example 89, 2-{3-[3-(4-Carbamoylpiperidin-1-yl)propoxy]benzylamino}-1-(β-D-ribofuranosyl)-1H-benzimidazole] | 24.9% (p < 0.01) | –
172 | C[N+](C)(CCO)CCCOc1cccc(CNc2nc3ccccc3n2[C@@H]2O[C@H](CO)[C@@H](O)[C@H]2O)c1 [Example 93] | – | –
9 | NCCCOc1cc(CNc2nc3ccccc3n2[C@@H]2O[C@H](CO)[C@@H](O)[C@H]2O)ccc1-c1ccccc1 [Example 51, 2-[3-(3-Aminopropoxy)-4-phenylbenzylamino]-1-(β-D-ribofuranosyl)-1H-benzimidazole] | – | –
184 | CN(C)CCCOc1cccc(CNc2nc3ccccc3n2[C@@H]2O[C@H](CO)[C@@H](O)[C@H]2O)c1 [Example 90] | 45.6% (p < 0.05) | –
